In patent publication US4313943A, “7-Chloro-2,3-dihydro-5-phenyl-1-propargyl-1H-1,4-benzodiazepine-2-one, and a pharmaceutical composition thereof” (priority 1972, dated 1982):
“Also recorded” adds a separate entry of the source.

Tests used:
[1] = Electrogenesis of various subcortical centers; type: in vivo; conditions: in vivo
Protocol: This study was conducted with test animals weighing between 2.6 and 2.8 kg, following the stereotaxic method of Monnier and Gangloff (Atlas et techniques stereotaxique pour le cerveau du lopin eveille, 1961, Elsevier Pub. Co.), permitting the stimulation of certain subcortical structures as well as a simultaneous detection and recording of their electrical activities, which were compared to that of reference cortical electrodes. In this study, the subcortical centers considered were the caudate nucleus, the dorsal hippocampus, the lateral thalamus, the mesenephalic reticular formation, and the hypothalamic reticular formation. Test compounds 1 and 4 were administered by the intragastric route with an identical dose of 7.5 mg/kg.
Spontaneous activity in the subcortical centers of the unanesthetized animals is characterized by desynchronized activity consisting of high amplitude and relatively slow rhythms (4 to 5 c/sec.), alternating with low amplitude rapid rhythms (12 to 13 c/sec.). Tracings from the hippocampus and caudate nucleus sometimes takes the form of bursts, which is less commonly the case from the thalamus. These may occur at the same time as bursts of rapid spikes arising from the frontal cortex. During periods of arousal, this desynchronized activity is followed by a synchronized theta rhythm (7 to 8 c/sec.) from the hippocampus and caudate nucleus and from the median thalamus, whereas the cortical and reticular electrical activities are transformed into ultra-rapid and low voltage rhythms (30μ volts).

[2] = Acute toxicity in the mouse (oral); conditions: in vivo, mouse (male)
Protocol: (§1) The test compounds shown in Table 2 were administered orally to male mice and rats in the form of a suspension in a 1% solution of sodium carboxymethyl cellulose. The LD50 (lethal dose 50%) was calculated by the method of Litchfield and Wilcoxon.

[3] = Acute toxicity in the rat (oral); conditions: in vivo
Protocol: as §1

[4] = Anti-convulsant activity in the mouse (convulsions induced by 1,5-pentamethylenetetrazole); type: in vivo; conditions: 30 min before pentamethylenetetrazole s.c.
Protocol: The inhibition of convulsions induced by 1,5-pentamethylenetetrazole was tested by the Clen method. The test compounds were administered orally to the mice, in the doses shown in Table 3, in the form of suspensions in 1% sodium carboxymethyl cellulose solution, and 30 minutes later the test animals were injected subcutaneously with […] of 1,5-pentamethylenetetrazole. The number of mice protected from lethal extensorial tonic spasms, per group of 10 test animals, was recorded.

[5] = Potentiation of narcosis (hexobarbitone sodium) in the mouse, Winter method; type: in vivo; conditions: hexobarbitone sodium 80 mg/kg i.p., control 33.3
Protocol: The Winter method was used, in which a state of narcosis is induced by the intraperitoneal administration of 80 mg/kg of hexobarbitone sodium, and is assessed by the loss of the righting reflex in the test animal. […] orally to the animals, in doses shown in Table 4, as suspensions in 1% sodium carboxymethyl cellulose solution; and the prolongation of narcosis in the animals thus treated was observed, by comparison with controls which received only the hexobarbitone administration.

[6] = Myorelaxant activity in the mouse (traction test); type: in vivo; conditions: after 30 minutes
Protocol: This was determined by the traction test of Joulon Courvoisier, following Boissier and Simon, in which the mouse is suspended by its front paws to a horizontal metal wire, and the animal's capacity to get up with its hind paws is observed. The test compounds were administered orally to the animals, in the doses shown in Table 5, as suspensions in 1% sodium carboxymethyl cellulose solution; and the animals were tested 30 minutes and 180 minutes after administration. The test animals were deemed to be myorelaxant if unable to get up within 5 seconds.

[7] = Effect on muscular relaxation in mice (30° inclined screen, Randall); type: in vivo
Protocol: The method utilized was the procedure described by Randall (1961) using a 30° inclined screen.

[8] = Convulsions induced by pentamethylenetetrazol in rats; type: in vivo
Protocol: The method utilized was according to the method published by Everett and Richards (1944) and Banziger (1965). The pentamethylenetetrazol was given subcutaneously (125 mg/kg) and the test compounds were given orally suspended in a 1% carboxymethyl cellulose solution.

[9] = Hypnotic activity comparison (Janssen 1959); type: in vivo; conditions: Table 11; species not given
Protocol: Toxicity in test animals to the test compounds in terms of LD50 after oral and intraperitoneal administration was determined according to the procedure of Litchfield and Wilcoxan (1949) and the hypnotic effect on test animals was determined in accordance with the method of Janssen (1959).

[10] = ECoG and sedation in test animals free to move; type: in vivo; conditions: unrestricted animals; compound 3 at 10 mg/kg
Protocol: Some test animals were kept in restraint cases placed in a relatively soundproof room and some were left free to move in metal cases measuring 40×50×30 cm, which were also kept in a relatively quiet environment.
In the test animals which were free to move, the first signs of sedation produced by the intragastric administration of 7.5 mg/kg of compounds 1 and 4 appeared, respectively, at 16 minutes (compound 1) and at 8 minutes (compound 4). […] The duration of the effect was, however, shorter, not exceeding 3 hours under these conditions in contrast to the 5 hour minimum for restricted animals.

[11] = Motor coordination in rats (rotarod, Dunham and Miya 1957); conditions: 68 mg/kg/os

SMILES: CNC1=Nc2ccc(Cl)cc2C(c2ccccc2)=[N+]([O-])C1 [Librium, reference compound]
- EEG activity of the hippocampus [1]: depressed; also recorded: reduction in the amplitude of the hippocampal rhythm

SMILES: C#CCN1C(=O)CN=C(c2ccccc2)c2cc([N+](=O)[O-])ccc21 [Compound 2, 7-nitro-2,3-dihydro-5-phenyl-1-propargyl-1H-1,4-benzodiazepin-2-one]
- LD50 [2]: 1880 mg/kg
- LD50 [3]: 876 mg/kg
- No. of Animals Protected ([4]; 0.12 mg/kg oral): 1/10
- No. of Animals Protected ([4]; 0.25 mg/kg oral): 4/10
- No. of Animals Protected ([4]; 0.5 mg/kg oral): 9/10
- Duration of narcosis ([5]; 0.5 mg/kg oral): 53.4 min
- Duration of narcosis ([5]; 1.0 mg/kg oral): 94.5 min
- Duration of narcosis ([5]; 2.0 mg/kg oral): 195.1 min
- Percentage of myorelaxant animals ([6]; 1.0 mg/kg oral): 10%
- Percentage of myorelaxant animals ([6]; 2.0 mg/kg oral): 20%
- Percentage of myorelaxant animals ([6]; 4.0 mg/kg oral): 40%
- Percentage of myorelaxant animals ([6]; 8.0 mg/kg oral): 60%

SMILES: CN1C(=O)CN=C(c2ccccc2)c2cc(Cl)ccc21 [Compound 3, 7-chloro-1,3-dihydro-1-methyl-5-phenyl-2H-1,4-benzodiazepin-2-one, reference compound]
- % Relaxed Animals ([7]; 10 mg/kg/os): 20%
- ED50 ([7]; Mus musculus, po, muscular relaxation, read-out: ED50 (and C.L.)): 14.1 mg/kg
- ED50 ([8]; Rattus norvegicus, oral, protection against pentamethylenetetrazol, read-out: ED50 (and C.L.) (converted)): 7.8 mg/kg
- % Protected Animals ([8]; Time 90 min.): 20%
- % Protected Animals ([8]; Time 120 min.): 10%
- % Protected Animals ([8]; Time 180 min.): 0%
- % Protected Animals ([8]; Time 240 min.): 0%
- ED50 [9]: 242 mg/kg
- duration of ECoG effects (three compounds compared) [10]: about 31/2
- EEG activity of the hippocampus ([1]; listed as Valium): depressed; also recorded: reduction in the amplitude of the hippocampal rhythm
- % Uncoordinated Animals [11]: 50%
